The values that follow come from patent US10689381B2 (priority 2017, dated 2020).

Test [1] deals with L1210. In words: cells. The class given is cell-based, mouse. The essentials:
(§1)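 Compound exposure ran 72 h at six concentrations (0–1000 nM or 0–10000 nM, duplicate) on cells plated at 30,000 cells/mL in 10% FBS DMEM. A closing 37 °C incubation took 15 min (HCT116) or 5 min (L1210).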

For test [2], the system named is HCT116. In words: cells. The conditions noted are these: for pIC50: read-out: IC50 HCT116. The class given is cell-based, human. The method in brief: as §1

pIC50: −log10 of the molar value. Like-named read-outs stand apart in the source and are kept apart here.

As usually defined, the pIC50 is −log10 of the IC50, conventionally taken in molar units. Turning to `CCC1(NC(=O)c2ccc(OC)c(Br)c2)CC2CN(CCc3c([nH]c4ccccc34)C(C(=O)OC)(c3cc4c(cc3OC)N(C)C3C(O)(C(=O)OC)C(OC(C)=O)C5(CC)C=CCN6CCC43C65)C2)C1` (centres unmarked) [Compound 93], the negative logarithm of the IC50 (pIC50) in test [1] (Table 2) was 8.29; in test [2] (Table 2), 8.21.
With `CCC1(NC(=O)C2CC2)CC2CN(CCc3c([nH]c4ccccc34)C(C(=O)OC)(c3cc4c(cc3OC)N(C)C3C(O)(C(=O)OC)C(OC(C)=O)C5(CC)C=CCN6CCC43C65)C2)C1` (centres unmarked) [Compound 17], the pIC50 in test [1] (Table 1) was 8.26; in test [2] (Table 1) it was 8.21.
Turning to `CCC1(NC(=O)c2ccc(C(F)(F)F)cc2)CC2CN(CCc3c([nH]c4ccccc34)C(C(=O)OC)(c3cc4c(cc3OC)N(C)C3C(O)(C(=O)OC)C(OC(C)=O)C5(CC)C=CCN6CCC43C65)C2)C1` (centres unmarked) [Compound 39], the negative logarithm of the IC50 (pIC50) in test [1] (Table 2) is 8.37; in test [2] (Table 2), 8.48.
`CCC1(NC(=O)c2ccc3cc(OC)ccc3c2)CC2CN(CCc3c([nH]c4ccccc34)C(C(=O)OC)(c3cc4c(cc3OC)N(C)C3C(O)(C(=O)OC)C(OC(C)=O)C5(CC)C=CCN6CCC43C65)C2)C1` (centres unmarked) [Compound 119]: the pIC50 in test [1] (Table 4) was 8.60; in test [2] (Table 4), 8.46.
In the case of `CC[C@]1(NC(=O)c2cnccn2)C[C@H]2CN(CCc3c([nH]c4ccccc34)[C@@](C(=O)OC)(c3cc4c(cc3OC)N(C)[C@H]3[C@@](O)(C(=O)OC)[C@H](OC(C)=O)[C@]5(CC)C=CCN6CC[C@]43[C@@H]65)C2)C1` [Compound 131], the figures for the pIC50 in test [1] (Table 5) and in test [2] (Table 5) were 7.40 and 7.70, respectively.
As to `CCC1(NC(=O)C=Cc2cccnc2)CC2CN(CCc3c([nH]c4ccccc34)C(C(=O)OC)(c3cc4c(cc3OC)N(C)C3C(O)(C(=O)OC)C(OC(C)=O)C5(CC)C=CCN6CCC43C65)C2)C1` (centres unmarked) [Compound 110], the pIC50 is 8.23 in test [1] (Table 3) and 8.24 in test [2] (Table 3).
In the case of `CCC1(NC(=O)c2ccc3ccoc3c2)CC2CN(CCc3c([nH]c4ccccc34)C(C(=O)OC)(c3cc4c(cc3OC)N(C)C3C(O)(C(=O)OC)C(OC(C)=O)C5(CC)C=CCN6CCC43C65)C2)C1` (centres unmarked) [Compound 157], the pIC50 in test [1] (Table 6) is 8.48; in test [2] (Table 6), 8.66.
Take `CC[C@]1(NC(=O)c2ccc(OC(F)(F)F)c(OC)c2)C[C@H]2CN(CCc3c([nH]c4ccccc34)[C@@](C(=O)OC)(c3cc4c(cc3OC)N(C)[C@H]3[C@@](O)(C(=O)OC)[C@H](OC(C)=O)[C@]5(CC)C=CCN6CC[C@]43[C@@H]65)C2)C1` [Compound 83]: the pIC50 in test [1] (Table 2) is 8.89; in test [2] (Table 2), 8.77.
In the case of `CCC1(NC(=O)c2ccccn2)CC2CN(CCc3c([nH]c4ccccc34)C(C(=O)OC)(c3cc4c(cc3OC)N(C)C3C(O)(C(=O)OC)C(OC(C)=O)C5(CC)C=CCN6CCC43C65)C2)C1` (centres unmarked) [Compound 130], the values for the pIC50 in test [1] (Table 5) and in test [2] (Table 5) were 7.26 and 7.30, respectively.
As to `CCC1(NC(=O)c2ccc3ccccc3c2)CC2CN(CCc3c([nH]c4ccccc34)C(C(=O)OC)(c3cc4c(cc3OC)N(C)C3C(O)(C(=O)OC)C(OC(C)=O)C5(CC)C=CCN6CCC43C65)C2)C1` (centres unmarked) [Compound 116], the negative logarithm of the IC50 (pIC50) was 8.72 in test [1] (Table 4) and 8.64 in test [2] (Table 4). In test [2] (vinblastine-sensitive cell lines), the “potency relative to vinblastine (more potent)” value is given as “approximately 3 fold”.
Take `CC[C@]1(NC(=O)c2ccc(N)cc2)C[C@H]2CN(CCc3c([nH]c4ccccc34)[C@@](C(=O)OC)(c3cc4c(cc3OC)N(C)[C@H]3[C@@](O)(C(=O)OC)[C@H](OC(C)=O)[C@]5(CC)C=CCN6CC[C@]43[C@@H]65)C2)C1` [Compound 57]: the negative-log IC50 (pIC50) in test [1] (Table 2) and in test [2] (Table 2) was 9.40 each time.
`CC[C@]1(NC(=O)c2ccc(F)cc2)C[C@H]2CN(CCc3c([nH]c4ccccc34)[C@@](C(=O)OC)(c3cc4c(cc3OC)N(C)[C@H]3[C@@](O)(C(=O)OC)[C@H](OC(C)=O)[C@]5(CC)C=CCN6CC[C@]43[C@@H]65)C2)C1` [Compound 44]: the pIC50 in test [1] (Table 2) was 8.74; in test [2] (Table 2), 8.85.
The matching figures for `CCCCc1ccc(C(=O)N[C@@]2(CC)C[C@H]3CN(CCc4c([nH]c5ccccc45)[C@@](C(=O)OC)(c4cc5c(cc4OC)N(C)[C@H]4[C@@](O)(C(=O)OC)[C@H](OC(C)=O)[C@]6(CC)C=CCN7CC[C@]54[C@@H]76)C3)C2)cc1` [Compound 35]: 7.52 and 7.70.
Take `CCC1(NC(=O)c2ccc3cc(N)ccc3c2)CC2CN(CCc3c([nH]c4ccccc34)C(C(=O)OC)(c3cc4c(cc3OC)N(C)C3C(O)(C(=O)OC)C(OC(C)=O)C5(CC)C=CCN6CCC43C65)C2)C1` (centres unmarked) [Compound 117]: the negative-log IC50 (pIC50) in test [1] (Table 4) is 9.15; in test [2] (Table 4) it was 9.10.
Turning to `CCC1(NS(=O)(=O)c2ccc(C)cc2)CC2CN(CCc3c([nH]c4ccccc34)C(C(=O)OC)(c3cc4c(cc3OC)N(C)C3C(O)(C(=O)OC)C(OC(C)=O)C5(CC)C=CCN6CCC43C65)C2)C1` (centres unmarked) [Compound 180], the pIC50 in test [1] (Table 7, C20′ sulfonamides) was 7.40; in test [2] (Table 7, C20′ sulfonamides), 7.52.
For `CC[C@]1(NC(=O)c2cc(Cl)c(OC)c(Cl)c2)C[C@H]2CN(CCc3c([nH]c4ccccc34)[C@@](C(=O)OC)(c3cc4c(cc3OC)N(C)[C@H]3[C@@](O)(C(=O)OC)[C@H](OC(C)=O)[C@]5(CC)C=CCN6CC[C@]43[C@@H]65)C2)C1` [Compound 96], the negative logarithm of the IC50 (pIC50) is 8.51 in test [1] (Table 2) and 8.38 in test [2] (Table 2).
The matching figures for `CCC1(NC(=O)c2ccc(SC)cc2)CC2CN(CCc3c([nH]c4ccccc34)C(C(=O)OC)(c3cc4c(cc3OC)N(C)C3C(O)(C(=O)OC)C(OC(C)=O)C5(CC)C=CCN6CCC43C65)C2)C1` (centres unmarked) [Compound 84]: 9.40 and 9.30.
In the case of `CC[C@]1(NC(=O)c2cccc(F)c2)C[C@H]2CN(CCc3c([nH]c4ccccc34)[C@@](C(=O)OC)(c3cc4c(cc3OC)N(C)[C@H]3[C@@](O)(C(=O)OC)[C@H](OC(C)=O)[C@]5(CC)C=CCN6CC[C@]43[C@@H]65)C2)C1` [Compound 45], the pIC50 in test [1] (Table 2) is 8.24; in test [2] (Table 2), 8.28.
`CC[C@]1(NC(=O)c2ccc(CC(C)C)cc2)C[C@H]2CN(CCc3c([nH]c4ccccc34)[C@@](C(=O)OC)(c3cc4c(cc3OC)N(C)[C@H]3[C@@](O)(C(=O)OC)[C@H](OC(C)=O)[C@]5(CC)C=CCN6CC[C@]43[C@@H]65)C2)C1` [Compound 36]: the negative-log IC50 (pIC50) in test [1] (Table 2) was 7.60; in test [2] (Table 2), 8.00.
In the case of `CCC1(NS(=O)(=O)c2ccc(OC)cc2)CC2CN(CCc3c([nH]c4ccccc34)C(C(=O)OC)(c3cc4c(cc3OC)N(C)C3C(O)(C(=O)OC)C(OC(C)=O)C5(CC)C=CCN6CCC43C65)C2)C1` (centres unmarked) [Compound 181], the pIC50 in test [1] (Table 7, C20′ sulfonamides) is 7.46; in test [2] (Table 7, C20′ sulfonamides) it was 7.52.
For the compound `CCC1(NC(=O)c2nc3ccccc3s2)CC2CN(CCc3c([nH]c4ccccc34)C(C(=O)OC)(c3cc4c(cc3OC)N(C)C3C(O)(C(=O)OC)C(OC(C)=O)C5(CC)C=CCN6CCC43C65)C2)C1` (centres unmarked) [Compound 172], the pIC50 in test [1] (Table 6) was 6.74; in test [2] (Table 6), 7.10.
As for `CCCc1ccc(C(=O)NC2(CC)CC3CN(CCc4c([nH]c5ccccc45)C(C(=O)OC)(c4cc5c(cc4OC)N(C)C4C(O)(C(=O)OC)C(OC(C)=O)C6(CC)C=CCN7CCC54C76)C3)C2)cc1` (centres unmarked) [Compound 34], the pIC50 in test [1] (Table 2) was 8.37; in test [2] (Table 2) it was 8.32.
On to `CCOc1ccc(C(=O)N[C@@]2(CC)C[C@H]3CN(CCc4c([nH]c5ccccc45)[C@@](C(=O)OC)(c4cc5c(cc4OC)N(C)[C@H]4[C@@](O)(C(=O)OC)[C@H](OC(C)=O)[C@]6(CC)C=CCN7CC[C@]54[C@@H]76)C3)C2)cc1Cl` [Compound 94], for which the pIC50 in test [1] (Table 2) was 8.38; in test [2] (Table 2) it was 8.21.
